This experiment deals with hTRPV3 (Homo sapiens (Human), UniProt Q8NET8). As to the kind of experiment: Whole-cell patch clamp, hTRPV3 Phase 1 / Phase 2 currents. Type of experiment: cell-based. The text has this:
Whole-cell patch clamp experiments permit the detection of currents through the TRPV3 channel in the cell line described above. A glass electrode is brought into contact with a single cell and the membrane is then ruptured, permitting control of the voltage of the cell membrane and measurement of currents flowing across the membrane using the amplifier attached to the electrode. A perfusion system permits control of the extracellular solution, including the addition of blockers and activators of the current. The current can be activated by heating this solution to 28° C. or warmer or by addition of 20 μM 2-APB to the solution.
TRPV3 cells were induced 20-48 hours, removed from growth plates, and replated at low density (to attain good single-cell physical separation) on glass coverslips for measurement. In some cases, cells were grown in low density overnight on glass coverslips. Patch clamp recordings were made in the whole-cell mode with a holding potential of −40 mV. Every 5 seconds, a voltage ramp was applied from −120 to +100 mV, 400 ms in duration. Currents elicited were quantified at −80 mV and +80 mV. […] External solution was Ringer's solution described above.
P1 refers to the Phase 1 current for human (h) TRPV3, and P2 refers to the Phase 2 current for human (h) TRPV3.
In Tables 3 and 4, Phase 1 refers to Phase 1 current for human (h) TRPV3 or rat (r) TRPV3, and Phase 2 refers to Phase 2 current for human (h) TRPV3 or rat (r) TRPV3. The hTRPV3 and rTRPV3 assays were performed as described herein. hERG refers to the inhibition the human ERG (hERG) channel. NaV1.5, refers to the pore forming aL-subunit of the voltage-dependent cardiac Na(+) channel and is an integral membrane protein involved in the initiation and conduction of action potentials. hTRPV3 HAMA IC50 refers to the IC50 of TRPV3 cells stably expressed in TRex-293 cells. Solubility Ringer refers to the compounds' solubility in Ringer's solution. LM T1/2 refers to liver microsome half-lives in either rat or human liver microsomes. FLIPR IC50 refers to the IC50 of the test compounds against recombinant hTRPV3 cells.
A general note: The patch-clamp technique gives a direct electrical read-out from membranes.

Setting [1] is: Phase 1 current, human TRPV3, read-out: hTRPV3 (nM) Phase 1.
The mark [2] stands for this setting: Phase 1 current, inward, whole-cell patch clamp, read-out: hTRPV3 Patch P1 Inwd.
Where [3] appears, read: Phase 1 current, read-out: hTRPV3 (nM) (Phase 1).
[4] abbreviates: Phase 2 current, inward, whole-cell patch clamp, read-out: hTRPV3 Patch P2 Inwd.
Setting [5] is: Phase 2 current, read-out: hTRPV3 (nM) (Phase 2).

Data on 30 compounds can be found in patent publication US12435061B2 (priority 2020, dated 2025).

Counter-ions that a name gives are not always drawn. Like-named read-outs stand apart in the source and are kept apart here. Where only a bound is given, the exact number is not on record here.

hTRPV3, sequence (Q8NET8 whole entry, the tested form may be a part): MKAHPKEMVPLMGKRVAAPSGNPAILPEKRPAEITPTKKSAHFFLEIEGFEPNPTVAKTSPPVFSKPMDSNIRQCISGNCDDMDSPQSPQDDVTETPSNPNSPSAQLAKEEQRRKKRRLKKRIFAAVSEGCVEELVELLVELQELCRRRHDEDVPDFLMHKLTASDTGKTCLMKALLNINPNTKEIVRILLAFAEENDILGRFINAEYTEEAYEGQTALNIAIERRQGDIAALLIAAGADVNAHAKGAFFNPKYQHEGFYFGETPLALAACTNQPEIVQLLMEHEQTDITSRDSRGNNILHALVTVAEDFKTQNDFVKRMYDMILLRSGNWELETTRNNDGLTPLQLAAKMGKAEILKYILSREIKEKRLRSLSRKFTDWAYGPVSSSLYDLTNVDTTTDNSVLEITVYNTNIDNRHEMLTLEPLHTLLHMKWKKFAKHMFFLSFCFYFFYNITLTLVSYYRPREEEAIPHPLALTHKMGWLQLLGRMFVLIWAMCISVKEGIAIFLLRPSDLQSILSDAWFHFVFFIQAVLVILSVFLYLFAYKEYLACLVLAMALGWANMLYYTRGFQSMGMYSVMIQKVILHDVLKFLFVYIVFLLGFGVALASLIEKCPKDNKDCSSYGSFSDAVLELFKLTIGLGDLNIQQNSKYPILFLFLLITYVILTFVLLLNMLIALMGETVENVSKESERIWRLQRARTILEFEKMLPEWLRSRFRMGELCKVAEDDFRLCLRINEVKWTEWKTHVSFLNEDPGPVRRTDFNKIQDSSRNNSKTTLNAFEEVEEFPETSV

With `COCc1ccccc1-c1ccc(C2CCN(C(=O)c3ccc(Cl)cn3)C2)c(CO)c1` (stereo not shown) [Compound 2-65, (5-chloropyridin-2-yl)(3-(3-(hydroxymethyl)-2′-(methoxymethyl)biphenyl-4-yl)pyrrolidin-1-yl)methanone], the IC50 is 97.7 nM under setting [1] and 10 to 100 nM under setting [2].
The matching figures for `CCc1ccccc1C(=O)c1ccc(C2CCN(C(=O)c3ncccc3Cl)C2)c(CO)c1` (stereo not shown) [Compound 2-15, (4-(1-(3-chloropicolinoyl)pyrrolidin-3-yl)-3-(hydroxymethyl)phenyl)(2-ethylphenyl)methanone]: > 3200 nM and > 1000 nM.
Regarding `CC(C)NC(=O)c1ccccc1N1CC[C@@H](Oc2ccc(C(F)(F)F)cn2)C1` [Compound 1-49, (R)—N-isopropyl-2-(3-(5-(trifluoromethyl)pyridin-2-yloxy)pyrrolidin-1-yl)benzamide], under setting [2], the IC50 was > 1000 nM.
Take `Cc1ccccc1-c1ccc(N2CC[C@H](Oc3ncccc3F)C2)c(CO)n1` [Compound 1-216, (S)-(3-(3-(3-fluoropyridin-2-yloxy)pyrrolidin-1-yl)-6-o-tolylpyridin-2-yl)methanol]: the IC50 is, setting by setting: under setting [2], > 1000 nM; under setting [3], 1160 nM.
On to `NCc1cc(-c2ccccc2Cl)ccc1N1CC[C@H](Oc2ccc(C(F)(F)F)cn2)C1` [Compound 1-118, (S)-(2′-chloro-4-(3-(5-(trifluoromethyl)pyridin-2-yloxy)pyrrolidin-1-yl)biphenyl-3-yl)methanamine], for which the IC50 runs as follows: under setting [2], > 1000 nM; under setting [3], ~1300 nM; under setting [4], > 1000 nM; under setting [5], < 3200 nM.
Regarding `OCc1cc(-c2ccccn2)ccc1N1CC[C@H](Oc2ccc(C(F)(F)F)cn2)C1` [Compound 1-254, (S)-(5-(pyridin-2-yl)-2-(3-(5-(trifluoromethyl)pyridin-2-yloxy)pyrrolidin-1-yl)phenyl) methanol], the IC50 is, setting by setting: under setting [2], > 1000 nM; under setting [3], 1290 nM.
As to `Cc1cccnc1O[C@H]1CCN(c2ccc(-c3ccccc3Cl)cc2C(C)O)C1` (stereo partly drawn) [Compound 1-172, 1-(2′-chloro-4-((S)-3-(3-methylpyridin-2-yloxy)pyrrolidin-1-yl)biphenyl-3-yl)ethanol], the IC50 under setting [2] is 100 to 1000 nM and the IC50 under setting [3] was 882 nM.
Regarding `CC(C)c1ccccc1Oc1ccc(C2CCN(C(=O)c3ccccn3)C2)c(CO)c1` (stereo not shown) [Compound 2-13, (3-(2-(hydroxymethyl)-4-(2-isopropylphenoxy)phenyl)pyrrolidin-1-yl)(pyridin-2-yl)methanone], the IC50 is 193 nM under setting [1] and 100 to 1000 nM under setting [2].
With `CN(C)Cc1ccccc1N1CC[C@@H](Oc2ccc(C(F)(F)F)cn2)C1` [Compound 1-60, (R)—N,N-dimethyl-1-(2-(3-(5-(trifluoromethyl)pyridin-2-yloxy)pyrrolidin-1-yl)phenyl) methanamine hydrochloride], the IC50 under setting [2] was > 1000 nM and the IC50 under setting [4] is > 1000 nM.
As for `O=C(c1ncccn1)N1CCC(c2ccc(-c3ccccc3C3CC3)cc2CO)C1` (stereo not shown) [Compound 2-122], the IC50 under setting [1] was 202 nM.
For the compound `CC(C)Oc1ccccc1N1CC[C@@H](Oc2ccc(C(F)(F)F)cn2)C1` [Compound 1-37, (R)-2-(1-(2-isopropoxyphenyl)pyrrolidin-3-yloxy)-5-(trifluoromethyl)pyridine], the IC50 under setting [2] was > 1000 nM.
`FC(F)(F)c1ccc(O[C@H]2CCN(c3ccccc3OCc3ccccc3)C2)nc1` [Compound 1-26, (S)-2-(1-(2-(benzyloxy)phenyl)pyrrolidin-3-yloxy)-5-(trifluoromethyl)pyridine]: the IC50 under setting [2] was > 1000 nM.
In the case of `O=C(c1ccc(N2CC[C@H](Oc3ncccc3Cl)C2)c(CO)c1)c1ccccc1Cl` [Compound 1-263, (S)-(2-chlorophenyl)(4-(3-(3-chloropyridin-2-yloxy)pyrrolidin-1-yl)-3-(hydroxymethyl)phenyl)methanone], the IC50 was 100 to 1000 nM under setting [2] and 444 nM under setting [3].
As to `COc1ccccc1Oc1ccc(N2CC[C@H](Oc3ccc(C)cn3)C2)c(CO)c1` [Compound 1-345, (S)-(5-(2-methoxyphenoxy)-2-(3-(5-methylpyridin-2-yloxy)pyrrolidin-1-yl)phenyl)methanol], the IC50 is, setting by setting: under setting [2], > 1000 nM; under setting [3], ~2450 nM.
Turning to `O=C(c1ccccc1N1CC[C@H](Oc2ccc(C(F)(F)F)cn2)C1)N(Cc1ccccc1)Cc1ccccc1` [Compound 1-52, (S)—N,N-dibenzyl-2-(3-(5-(trifluoromethyl)pyridin-2-yloxy)pyrrolidin-1-yl)benzamide], the IC50 under setting [2] is > 1000 nM.
For “5-(2-isopropylphenoxy)-2-(1-(pyrazine-2-carbonyl)pyrrolidin-3-yl)benzamide [Compound 2-103]”, the IC50 runs as follows: under setting [1], ~5250 nM; under setting [2], > 1000 nM.
On to `Cc1ccccc1N1CCC(Nc2ncc(C(F)(F)F)cc2Cl)C1` (stereo not shown) [Compound 1-371, 3-chloro-N-(1-o-tolylpyrrolidin-3-yl)-5-(trifluoromethyl)pyridin-2-amine], for which the IC50 was > 1000 nM under setting [2] and > 1000 nM under setting [4].
With `Cc1ccc(O[C@H]2CCN(c3ccc(-c4ncccc4C)cc3CO)C2)nc1` [Compound 1-259, (S)-(5-(3-methylpyridin-2-yl)-2-(3-(5-methylpyridin-2-yloxy)pyrrolidin-1-yl)phenyl) methanol], the IC50 reads like this: under setting [2], > 1000 nM; under setting [3], 3050 nM; under setting [4], > 1000 nM; under setting [5], 2260 nM.
For the compound `OCc1nc(-c2ccccc2)ccc1N1C[C@@H](O)[C@H](Oc2ccc(C(F)(F)F)cn2)C1` [Compound 1-323], the IC50 reads like this: under setting [2], > 1000 nM; under setting [3], 3610 nM.
On to `CCc1ccccc1Oc1ccc(C2CCN(C(=O)c3ccccn3)C2)c(C(N)=O)c1` (stereo not shown) [Compound 2-38, 5-(2-ethylphenoxy)-2-(1-picolinoylpyrrolidin-3-yl)benzamide], for which the IC50 reads like this: under setting [1], 2820 nM; under setting [2], > 1000 nM.
For the compound `O=C(c1ccc(N2CC[C@H](Oc3ccccn3)C2)c(CO)c1)c1ccccc1Cl` [Compound 1-332, (S)-(2-chlorophenyl)(3-(hydroxymethyl)-4-(3-(pyridin-2-yloxy)pyrrolidin-1-yl)phenyl) methanone], the IC50 by setting is: under setting [2], > 1000 nM; under setting [3], > 3200 nM; under setting [4], > 1000 nM; under setting [5], > 3200 nM.
Consider `NC(=O)c1cc(-c2cccnc2)ccc1N1CC[C@@H](Oc2ccccn2)C1` [Compound 1-87, hydrochloride], for which the IC50 under setting [2] was > 1000 nM.
As to `COc1cc(-c2ccccc2)ccc1N1CC[C@@H](Oc2ncc(C(F)(F)F)cc2Cl)C1` [Compound 1-120, (R)-3-chloro-2-(1-(3-methoxybiphenyl-4-yl)pyrrolidin-3-yloxy)-5-(trifluoromethyl)pyridine], the IC50 by setting is: under setting [3], > 3200 nM; under setting [5], > 3200 nM; (hTRPV3 Patch P1 Inwd (nM), Phase 1 current, inward, whole-cell patch clamp) > 1000 nM; (hTRPV3 Patch P2 Inwd (nM), Phase 2 current, inward, whole-cell patch clamp) > 1000 nM.
Take `CC(C)c1ccccc1Oc1ccc(N2CC[C@H](Oc3ccc(C#N)cn3)C2)c(CCO)c1` [Compound 1-362]: the IC50 was 10 to 100 nM under setting [2] and 61.2 nM under setting [3].
With `O=C(c1cnc(Cl)cn1)N1CCC(c2ccc(-c3ccccc3C3CC3)cc2CO)C1` (stereo not shown) [Compound 2-108], the IC50 is 12.9 nM under setting [1] and 10 to 100 nM under setting [2].
Regarding `OCc1cc(Oc2ccc(Cl)c(Cl)c2)ccc1N1CC[C@H](Oc2ccccn2)C1` [Compound 1-344], the IC50 runs as follows: under setting [2], 10 to 100 nM; under setting [3], 65.3 nM.
The matching figures for `Cc1ccccc1-c1ccc(N2CC[C@H](Oc3ccc(F)cn3)C2)c(CO)n1` [Compound 1-207, (S)-(3-(3-(5-fluoropyridin-2-yloxy)pyrrolidin-1-yl)-6-o-tolylpyridin-2-yl)methanol]: 100 to 1000 nM and 283 nM.
Regarding `CC(=O)c1cc(F)ccc1Oc1ccc(N2CC[C@H](Oc3ccccn3)C2)c(CO)c1` [Compound 1-343], the IC50 by setting is: under setting [2], 100 to 1000 nM; under setting [3], 199 nM.
With `CC(C)c1ccccc1-c1ccc(C2CCN(C(=O)c3ncccc3Cl)C2)c(C(N)=O)c1` (stereo not shown) [Compound 2-41], the IC50 runs as follows: under setting [1], 575 nM; under setting [2], 100 to 1000 nM.
Consider `COc1ccccc1-c1ccc(N2CC[C@H](Oc3ccc(Cl)cn3)C2)c(CO)n1` [Compound 1-202, (S)-(3-(3-(5-chloropyridin-2-yloxy)pyrrolidin-1-yl)-6-(2-methoxyphenyl)pyridin-2-yl)methanol], for which the “hTRPV3 (nM) (Phase 1)” value (Phase 1 current) is on record as “Incomplete Block (Phase 1)”.
